Measurements reported in US9079859B2, “Synthetic lethal targeting of glucose transport” (AUCKLAND UNISERVICES LIMITED, priority 2011, dated 2015).
Read-outs that look alike come from different tables or passages of the source.

What was measured:
RCC4 and RCC4/VHL cells = assay type: cell-based
Procedure: Cell Viability Assays. For 2,3-bis[2-methoxy-4-nitro-5-sulfophenyl]-2H-tetrazolium-5-carboxanilide (XTT) assays, five thousand cells were plated in 96-well plates. The next day, vehicle (DMSO) or drug was added by serial dilution. Four days later, media were aspirated, XTT solution (0.3 mg/ml of XTT (Sigma), […] N-methyl dibenxopyrazine methyl sulfate (Sigma) in phenol red-free media) was added, and the plates were incubated at 37° C. for 1-2 hours. Metabolism of XTT was quantified by measuring the absorbance at 450 nm. IC50s were calculated using linear interpolation. For clonogenic survival assays, three hundred cells were plated per 60 mm tissue culture dish. The cells were allowed to attach overnight and then treated with vehicle or drug for 14 days. Colonies were fixed and stained with crystal violet (0.1% crystal violet in 95% ethanol). All conditions were measured in triplicate and each experiment was done in duplicate or triplicate. To determine necrosis, cells were treated with drug for a given time point. Media and cells were collected, centrifugated, and resuspended in 0.4% trypan blue (Invitrogen). Live and dead cells were counted on a hematocytometer.

RCC4 cells = experiment: Glucose uptake (2-deoxy-D-[3H]glucose), RCC4; assay type: cell-based
Procedure: Glucose Uptake. One hundred thousand cells were plated per well in a six-well plate. The next day, cells were treated with the indicated concentration of drug and incubated for the indicated time. Cells were then washed twice with phosphate-buffered saline, incubated in low-glucose medium for 30 minutes, and 3H-2-deoxyglucose (0.5 μCi) was added in 1 ml of glucose-free media for an additional hour. Cells were washed twice in PBS and lysed (0.2 N NaOH and 0.2% sodium dodecyl sulfate). Glucose uptake was quantified with a scintillation counter.

786-O xenograft tumors = experiment: FDG-PET imaging of glucose uptake in renal carcinoma xenograft; assay type: in vivo, mice; conditions: three daily doses (STF-35 11.6 mg/kg i.p.)
Procedure: In Vivo Studies. All experiments were approved by Stanford's Administrative Panel on Laboratory Animal Care (APLAC) and in accordance with both institutional and national guidelines. Five million cells were implanted subcutaneously into the flanks of nude mice (4-6 weeks old)(Charles River Laboratories). Tumors were measured with calipers. Volume was calculated by the following formula: width^2×0.5 length. Once tumors reached an average size of >20 mm^3, mice were randomized into vehicle (DMSO diluted in 16% cremaphor EL/PBS) or treated groups. Mice were treated with STF-35 (11.6 mg/kg for the first 3 days, followed by 7.8 mg/kg for the 7-9 days). Five-micron sections were cut for immunohistochemistry. Sections were counterstained with hematoxylin and eosin. For 2-[^18F]-fluoro-2-deoxy-glucose-positron emission tomography imaging, mice bearing tumors were fasted overnight. The next day, the mice were anesthetized with 2% isoflurane and injected intraperitoneally with 250 μCi of FDG. Mice were imaged for 10 minutes at one hour post-injection, using a Rodent R4 microPET system (Concorde Microsystems). Data were reconstructed into three-dimensional volumes using an ordered subset expectation maximization algorithm and were calibrated into units of percent injected dose per gram.

LC3 = conditions: leading to cell death; cited from earlier work
[1] = short-term (XTT) and/or long-term (clonogenic) survival assays

SMILES: O=CC[C@@H](O)[C@H](O)[C@H](O)CO [2-DG, 2-deoxy-D-glucose]
- cytotoxicity to RCC4 and RCC4/VHL cells (RCC4 and RCC4/VHL cells): not cytotoxic

SMILES: Cc1cccc(Nc2nc(-c3ccncc3)cs2)c1 [STF-62247]
- glucose uptake in VHL-defective cells, analogs and control cytotoxins (RCC4 cells): did not decrease
- glucose (FDG) uptake within the tumors by FDG-PET (786-O xenograft tumors): did not have a decrease
- autophagy in VHL-deficient RCCs (LC3): induce autophagy

SMILES: O=C(O)C(=O)CBr [bromopyruvate]
- cytotoxicity to RCC4 and RCC4/VHL cells (RCC4 and RCC4/VHL cells; [1]): toxic to both

SMILES: Clc1ccccc1C(c1ccccc1)(c1ccccc1)n1ccnc1 [clotrimazole]
- cytotoxicity to RCC4 and RCC4/VHL cells (RCC4 and RCC4/VHL cells): toxic to both

SMILES: CC(=O)CC(=O)Nc1ccc(Cl)c(C(F)(F)F)c1 [fasentin]
- cytotoxicity to RCC4 and RCC4/VHL cells (RCC4 and RCC4/VHL cells; [1]): relatively non-toxic

SMILES: O=C(O)c1nn(Cc2ccc(Cl)cc2Cl)c2ccccc12 [lonidamine]
- cytotoxicity to RCC4 and RCC4/VHL cells (RCC4 and RCC4/VHL cells): toxic to both

SMILES: O=C(CCc1ccc(O)cc1)c1c(O)cc(O)cc1O [phloretin]
- cytotoxicity to RCC4 and RCC4/VHL cells (RCC4 and RCC4/VHL cells): toxic to both
